Laboratory results as given in US20220242870A1, “HETEROCYCLE-FUSED PYRIMIDINE DERIVATIVE AND USE THEREOF” (VORONOI Inc., priority 2019, published 2022).

Legend:
Experiment in all cases: scanMAX kinase assay panel
Assay type in all cases: binding
[1] = molecular target: T1, ABL1(Q252H)-nonphosphorylated (Homo sapiens, UniProt P00519, Q252H); details: read-out: control percentage (% control)
T1 construct: purchased DiscoverX (scanMAX panel, contract assay)
Procedure: (§1) The activities of the compounds according to the present invention to more diverse enzymes were evaluated. Specifically, it was decided that the enzyme selectivity of Example 74 selected from the compounds of Examples 1 to 129 was measured at the request of DiscoverX, and the experiment was conducted using a scanMAX™ kinase assay panel. At this time, as a drug to treat the enzyme, a solution prepared by dissolving in DMSO at a concentration of 1 μM was used, and the control percentage (% control) was determined by the method of Equation 1 below, and the results were shown in Table 2 below.
(§2) In Equation above, the positive control and negative control mean compounds showing control percentages of 0% and 100% as DMSO, respectively.

[2] = molecular target: T2, ABL1(T315I)-nonphosphorylated (Homo sapiens, UniProt P00519, T315I); details: read-out: control percentage (% control)
T2 construct: purchased DiscoverX (scanMAX panel, contract assay)
Procedure: as §1, §2

[3] = molecular target: T3, ABL1(T315I)-phosphoryIated (Homo sapiens, UniProt P00519, T315I); details: read-out: control percentage (% control)
T3 construct: purchased DiscoverX (scanMAX panel, contract assay)
Procedure: as §1, §2

[4] = molecular target: T4, ALK (Homo sapiens, UniProt Q9UM73); details: read-out: control percentage (% control)
T4 construct: purchased DiscoverX (scanMAX panel, contract assay)
Procedure: as §1, §2

[5] = molecular target: T5, ALK(C1156Y) (Homo sapiens, UniProt Q9UM73, C1156Y); details: read-out: control percentage (% control)
T5 construct: purchased DiscoverX (scanMAX panel, contract assay)
Procedure: as §1, §2

[6] = molecular target: T6, CLK1 (Homo sapiens, UniProt P49759); details: read-out: control percentage (% control)
T6 construct: purchased DiscoverX (scanMAX panel, contract assay)
T6 sequence (P49759 whole entry): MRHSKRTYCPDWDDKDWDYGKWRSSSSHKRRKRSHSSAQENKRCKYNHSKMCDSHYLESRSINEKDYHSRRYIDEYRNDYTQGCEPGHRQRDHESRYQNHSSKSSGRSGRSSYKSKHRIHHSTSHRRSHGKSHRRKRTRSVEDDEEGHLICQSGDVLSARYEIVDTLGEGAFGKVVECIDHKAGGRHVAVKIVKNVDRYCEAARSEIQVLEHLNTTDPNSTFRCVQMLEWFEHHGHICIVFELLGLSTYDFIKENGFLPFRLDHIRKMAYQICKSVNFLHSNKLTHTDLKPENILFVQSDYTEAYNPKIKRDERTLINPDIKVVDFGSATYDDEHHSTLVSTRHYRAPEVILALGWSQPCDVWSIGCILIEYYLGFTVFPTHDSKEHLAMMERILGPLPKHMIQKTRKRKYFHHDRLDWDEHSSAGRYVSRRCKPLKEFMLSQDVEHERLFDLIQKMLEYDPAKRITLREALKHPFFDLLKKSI
Procedure: as §1, §2

[7] = molecular target: T7, EGFR(L858R) (Homo sapiens, UniProt P00533, L858R); details: read-out: control percentage (% control)
T7 construct: purchased DiscoverX scanMAX kinase assay panel
T7 sequence (P00533 25-1210 L858R): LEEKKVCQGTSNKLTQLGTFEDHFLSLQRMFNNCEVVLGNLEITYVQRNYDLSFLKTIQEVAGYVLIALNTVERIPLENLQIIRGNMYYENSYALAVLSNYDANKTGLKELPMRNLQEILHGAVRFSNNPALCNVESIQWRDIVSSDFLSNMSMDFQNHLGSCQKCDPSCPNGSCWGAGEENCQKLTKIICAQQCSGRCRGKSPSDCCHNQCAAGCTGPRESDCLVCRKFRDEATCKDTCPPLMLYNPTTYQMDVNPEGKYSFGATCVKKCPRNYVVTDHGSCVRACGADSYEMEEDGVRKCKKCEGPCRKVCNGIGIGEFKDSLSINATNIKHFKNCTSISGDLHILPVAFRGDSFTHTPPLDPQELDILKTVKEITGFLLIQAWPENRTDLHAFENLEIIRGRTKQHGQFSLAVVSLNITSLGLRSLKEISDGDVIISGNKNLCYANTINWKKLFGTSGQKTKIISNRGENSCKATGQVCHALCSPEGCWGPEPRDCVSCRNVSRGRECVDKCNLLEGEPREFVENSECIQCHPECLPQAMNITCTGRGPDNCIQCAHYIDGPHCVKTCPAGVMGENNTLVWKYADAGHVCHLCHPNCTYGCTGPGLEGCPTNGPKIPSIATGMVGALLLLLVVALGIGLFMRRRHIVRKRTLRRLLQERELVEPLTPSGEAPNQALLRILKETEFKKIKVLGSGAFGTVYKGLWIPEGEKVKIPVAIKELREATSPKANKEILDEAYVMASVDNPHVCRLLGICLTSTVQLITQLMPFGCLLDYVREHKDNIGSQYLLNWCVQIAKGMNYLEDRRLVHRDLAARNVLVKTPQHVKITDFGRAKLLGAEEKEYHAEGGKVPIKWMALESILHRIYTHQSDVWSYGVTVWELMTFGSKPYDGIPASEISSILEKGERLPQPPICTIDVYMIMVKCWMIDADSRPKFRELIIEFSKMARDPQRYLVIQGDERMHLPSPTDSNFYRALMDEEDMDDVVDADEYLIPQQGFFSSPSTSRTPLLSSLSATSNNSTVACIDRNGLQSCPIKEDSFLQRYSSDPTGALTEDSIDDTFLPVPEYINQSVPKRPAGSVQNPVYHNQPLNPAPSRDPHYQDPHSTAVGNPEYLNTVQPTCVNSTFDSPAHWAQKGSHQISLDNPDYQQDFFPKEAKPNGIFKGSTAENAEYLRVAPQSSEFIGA
Procedure: as §1, §2

[8] = molecular target: T8, EGFR(L861Q) (Homo sapiens, UniProt P00533, L861Q); details: read-out: control percentage (% control)
T8 construct: purchased DiscoverX scanMAX kinase assay panel
Procedure: as §1, §2

[9] = molecular target: T9, FGR (Homo sapiens, UniProt P09769); details: read-out: control percentage (% control)
T9 construct: purchased DiscoverX scanMAX kinase assay panel
T9 sequence (P09769 whole entry): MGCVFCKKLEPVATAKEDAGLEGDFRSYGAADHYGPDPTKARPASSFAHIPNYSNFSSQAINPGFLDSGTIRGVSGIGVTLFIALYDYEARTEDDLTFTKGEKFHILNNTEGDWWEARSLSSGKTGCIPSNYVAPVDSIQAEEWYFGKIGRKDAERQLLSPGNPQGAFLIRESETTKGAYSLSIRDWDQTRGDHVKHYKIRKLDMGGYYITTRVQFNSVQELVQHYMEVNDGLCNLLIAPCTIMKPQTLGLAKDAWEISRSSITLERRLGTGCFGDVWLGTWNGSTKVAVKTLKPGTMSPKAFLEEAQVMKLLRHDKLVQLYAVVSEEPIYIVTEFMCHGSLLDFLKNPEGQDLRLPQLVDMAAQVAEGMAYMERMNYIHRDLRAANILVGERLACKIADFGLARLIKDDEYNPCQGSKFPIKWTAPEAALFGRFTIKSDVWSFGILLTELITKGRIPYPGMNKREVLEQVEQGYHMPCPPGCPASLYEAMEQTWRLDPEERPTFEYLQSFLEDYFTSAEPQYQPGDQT
Procedure: as §1, §2

[10] = molecular target: T10, FLT3(D835V) (Homo sapiens, UniProt P36888, D835V); details: read-out: control percentage (% control)
T10 construct: purchased DiscoverX scanMAX kinase assay panel
Procedure: as §1, §2

[11] = test system: FLT3(ITD, F691L); details: 1 μM
Procedure: as §1, §2

[12] = molecular target: T11, FLT3(K663Q) (Homo sapiens, UniProt P36888, K663Q); details: read-out: control percentage (% control)
T11 construct: purchased DiscoverX scanMAX kinase assay panel
Procedure: as §1, §2

[13] = molecular target: T12, GRK4 (Homo sapiens, UniProt P32298); details: read-out: control percentage (% control)
T12 construct: purchased DiscoverX scanMAX kinase assay panel
Procedure: as §1, §2

[14] = molecular target: T13, JAK3(JH1domain-catalytic) (Homo sapiens, UniProt P52333); details: read-out: control percentage (% control)
T13 construct: JAK3(JH1domain-catalytic); purchased DiscoverX scanMAX kinase assay panel
Procedure: as §1, §2

[15] = molecular target: T14, LTK (Homo sapiens, UniProt P29376); details: read-out: control percentage (% control)
T14 construct: purchased DiscoverX scanMAX kinase assay panel
Procedure: as §1, §2

[16] = molecular target: T15, MAP3K3 (Homo sapiens, UniProt Q99759); details: read-out: control percentage (% control)
T15 construct: purchased DiscoverX scanMAX kinase assay panel
Procedure: as §1, §2

[17] = molecular target: T16, MAP4K5 (Homo sapiens, UniProt Q9Y4K4); details: read-out: control percentage (% control)
T16 construct: purchased DiscoverX scanMAX kinase assay panel
Procedure: as §1, §2

[18] = molecular target: T17, MEK5 (Homo sapiens, UniProt Q13163); details: read-out: control percentage (% control)
T17 construct: purchased DiscoverX scanMAX kinase assay panel
Procedure: as §1, §2

[19] = molecular target: T18, MELK (Homo sapiens, UniProt Q14680); details: read-out: control percentage (% control)
T18 construct: purchased DiscoverX scanMAX kinase assay panel
Procedure: as §1, §2

[20] = molecular target: T19, MLK1 (Homo sapiens, UniProt P80192); details: read-out: control percentage (% control)
T19 construct: purchased DiscoverX scanMAX kinase assay panel
Procedure: as §1, §2

[21] = molecular target: T20, MUSK (Homo sapiens, UniProt O15146); details: read-out: control percentage (% control)
T20 construct: purchased DiscoverX scanMAX kinase assay panel
Procedure: as §1, §2

[22] = molecular target: T21, NEK10 (Homo sapiens, UniProt Q6ZWH5); details: read-out: control percentage (% control)
T21 construct: purchased DiscoverX scanMAX kinase assay panel
T21 sequence (Q6ZWH5 whole entry): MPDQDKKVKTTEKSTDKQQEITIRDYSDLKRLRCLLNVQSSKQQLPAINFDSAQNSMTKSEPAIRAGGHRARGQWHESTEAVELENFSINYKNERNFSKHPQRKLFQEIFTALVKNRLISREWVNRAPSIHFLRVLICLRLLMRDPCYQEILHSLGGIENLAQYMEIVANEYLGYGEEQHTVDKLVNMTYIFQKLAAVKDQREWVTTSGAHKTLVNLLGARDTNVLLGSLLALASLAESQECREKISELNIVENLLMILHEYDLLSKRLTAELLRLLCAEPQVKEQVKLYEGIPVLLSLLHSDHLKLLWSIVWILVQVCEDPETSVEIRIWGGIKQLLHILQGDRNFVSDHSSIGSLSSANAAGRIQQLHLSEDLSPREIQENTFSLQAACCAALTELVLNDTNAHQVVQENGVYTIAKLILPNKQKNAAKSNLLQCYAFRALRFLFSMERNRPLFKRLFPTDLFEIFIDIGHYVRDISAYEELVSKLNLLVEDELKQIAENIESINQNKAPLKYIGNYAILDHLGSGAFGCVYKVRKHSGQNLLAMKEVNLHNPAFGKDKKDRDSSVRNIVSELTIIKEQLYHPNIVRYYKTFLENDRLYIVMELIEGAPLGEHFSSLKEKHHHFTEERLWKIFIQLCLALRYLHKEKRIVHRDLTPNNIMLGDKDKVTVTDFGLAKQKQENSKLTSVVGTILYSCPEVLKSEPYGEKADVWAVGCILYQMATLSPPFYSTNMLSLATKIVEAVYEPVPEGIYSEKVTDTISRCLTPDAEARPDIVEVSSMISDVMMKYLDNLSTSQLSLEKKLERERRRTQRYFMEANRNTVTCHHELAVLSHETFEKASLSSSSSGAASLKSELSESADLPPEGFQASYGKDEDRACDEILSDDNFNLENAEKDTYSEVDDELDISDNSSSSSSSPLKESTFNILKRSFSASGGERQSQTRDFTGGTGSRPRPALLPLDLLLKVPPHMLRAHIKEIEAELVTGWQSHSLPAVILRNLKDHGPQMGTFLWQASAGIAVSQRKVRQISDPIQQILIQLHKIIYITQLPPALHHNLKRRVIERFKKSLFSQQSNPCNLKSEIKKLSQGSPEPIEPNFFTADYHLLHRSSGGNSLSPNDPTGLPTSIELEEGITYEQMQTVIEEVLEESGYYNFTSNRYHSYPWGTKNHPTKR
Procedure: as §1, §2

[23] = molecular target: T22, PYK2 (Homo sapiens, UniProt Q14289); details: read-out: control percentage (% control)
T22 construct: purchased DiscoverX scanMAX kinase assay panel
Procedure: as §1, §2

[24] = molecular target: T23, RET(M918T) (Homo sapiens, UniProt P07949, M918T); details: read-out: control percentage (% control)
T23 construct: purchased DiscoverX scanMAX kinase assay panel
Procedure: as §1, §2

[25] = molecular target: T24, RET(V804L) (Homo sapiens, UniProt P07949, V804L); details: read-out: control percentage (% control)
T24 construct: purchased DiscoverX scanMAX kinase assay panel
Procedure: as §1, §2

[26] = molecular target: T25, RIOK1 (Homo sapiens, UniProt Q9BRS2); details: read-out: control percentage (% control)
T25 construct: purchased DiscoverX scanMAX kinase assay panel
Procedure: as §1, §2

[27] = molecular target: T26, ROCK1 (Homo sapiens, UniProt Q13464); details: read-out: control percentage (% control)
T26 construct: purchased DiscoverX scanMAX kinase assay panel
T26 sequence (Q13464 whole entry): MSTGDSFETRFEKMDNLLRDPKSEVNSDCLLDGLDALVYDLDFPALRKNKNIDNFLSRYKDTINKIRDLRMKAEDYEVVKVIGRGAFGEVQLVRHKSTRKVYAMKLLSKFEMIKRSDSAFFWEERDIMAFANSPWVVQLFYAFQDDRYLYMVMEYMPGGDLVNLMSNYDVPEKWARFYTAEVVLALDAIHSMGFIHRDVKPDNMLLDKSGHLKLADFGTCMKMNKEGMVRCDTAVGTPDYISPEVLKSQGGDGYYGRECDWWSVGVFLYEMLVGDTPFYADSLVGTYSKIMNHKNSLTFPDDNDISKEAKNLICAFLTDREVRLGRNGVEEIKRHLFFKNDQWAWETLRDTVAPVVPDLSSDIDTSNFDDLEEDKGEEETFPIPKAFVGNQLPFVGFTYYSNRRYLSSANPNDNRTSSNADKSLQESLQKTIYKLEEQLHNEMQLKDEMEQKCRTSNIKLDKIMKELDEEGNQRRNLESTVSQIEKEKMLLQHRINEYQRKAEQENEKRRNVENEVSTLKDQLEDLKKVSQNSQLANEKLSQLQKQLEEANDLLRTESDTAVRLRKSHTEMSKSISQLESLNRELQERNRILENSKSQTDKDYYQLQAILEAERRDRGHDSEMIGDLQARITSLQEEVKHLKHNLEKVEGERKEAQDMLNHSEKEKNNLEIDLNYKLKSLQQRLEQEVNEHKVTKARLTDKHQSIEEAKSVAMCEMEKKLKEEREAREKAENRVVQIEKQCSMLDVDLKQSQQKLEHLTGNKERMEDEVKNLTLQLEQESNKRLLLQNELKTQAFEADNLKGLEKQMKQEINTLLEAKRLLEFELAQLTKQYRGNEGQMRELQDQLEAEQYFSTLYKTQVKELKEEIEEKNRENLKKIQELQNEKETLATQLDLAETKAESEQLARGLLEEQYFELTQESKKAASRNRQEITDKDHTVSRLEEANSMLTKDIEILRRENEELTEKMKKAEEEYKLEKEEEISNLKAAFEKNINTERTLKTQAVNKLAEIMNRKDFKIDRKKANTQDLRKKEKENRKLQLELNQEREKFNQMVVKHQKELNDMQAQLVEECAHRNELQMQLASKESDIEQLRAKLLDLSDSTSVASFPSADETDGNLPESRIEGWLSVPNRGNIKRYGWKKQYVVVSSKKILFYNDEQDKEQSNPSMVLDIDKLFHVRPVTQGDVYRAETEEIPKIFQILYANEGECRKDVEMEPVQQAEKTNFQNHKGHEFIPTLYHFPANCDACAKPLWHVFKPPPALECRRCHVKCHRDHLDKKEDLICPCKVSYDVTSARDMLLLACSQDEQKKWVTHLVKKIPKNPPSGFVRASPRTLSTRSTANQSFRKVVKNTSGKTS
Procedure: as §1, §2

[28] = molecular target: T27, RSK4(Kin.Dom.2-C-terminal) (Homo sapiens, UniProt Q9UK32); details: read-out: control percentage (% control)
T27 construct: RSK4(Kin.Dom.2-C-terminal); purchased DiscoverX scanMAX kinase assay panel
T27 sequence (Q9UK32 426-683 limits assumed): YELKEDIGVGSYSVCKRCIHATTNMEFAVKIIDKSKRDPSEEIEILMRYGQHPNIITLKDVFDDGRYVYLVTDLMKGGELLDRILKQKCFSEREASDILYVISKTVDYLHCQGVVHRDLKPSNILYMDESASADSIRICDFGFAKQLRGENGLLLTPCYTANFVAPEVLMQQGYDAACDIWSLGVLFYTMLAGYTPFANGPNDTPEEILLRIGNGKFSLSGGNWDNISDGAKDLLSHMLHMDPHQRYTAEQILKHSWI
Procedure: as §1, §2

[29] = molecular target: T28, SLK (Homo sapiens, UniProt Q9H2G2); details: read-out: control percentage (% control)
T28 construct: purchased DiscoverX
Procedure: as §1, §2

[30] = molecular target: T29, SRPK3 (Homo sapiens, UniProt Q9UPE1); details: read-out: control percentage (% control)
T29 construct: purchased DiscoverX
Procedure: as §1, §2

[31] = molecular target: T30, STK16 (Homo sapiens, UniProt O75716); details: read-out: control percentage (% control)
T30 construct: purchased DiscoverX
Procedure: as §1, §2

[32] = molecular target: T31, TIE1 (Homo sapiens, UniProt P35590); details: read-out: control percentage (% control)
T31 construct: purchased DiscoverX
Procedure: as §1, §2

[33] = molecular target: T32, TNIK (Homo sapiens, UniProt Q9UKE5); details: read-out: control percentage (% control)
T32 construct: purchased DiscoverX
Procedure: as §1, §2

[34] = molecular target: T33, TTK (Homo sapiens, UniProt P33981); details: read-out: control percentage (% control)
T33 construct: purchased DiscoverX
Procedure: as §1, §2

## CN1CCN(c2ccc(Nc3nc(N4OCC[C@H]4c4ccccc4)c4cc[nH]c4n3)cc2)CC1 [Example 74, (S)-N-(4-(4-methylpiperazin-1-yl)phenyl)-4-(3-phenylisoxazolidin-2-yl)-7H-pyrrolo[2,3-d]pyrimidin-2-amine]
[1]
  remaining binding at 1 µM: 24%
[2]
  remaining binding at 1 µM: 29%
[3]
  remaining binding at 1 µM: 8.4%
[4]
  remaining binding at 1 µM: 31%
[5]
  remaining binding at 1 µM: 15%
[6]
  remaining binding at 1 µM: 3.4%
[7]
  remaining binding at 1 µM: 20%
[8]
  remaining binding at 1 µM: 30%
[9]
  remaining binding at 1 µM: 17%
[10]
  remaining binding at 1 µM: 1.7%
[11]
  control percentage (% control): 0%
[12]
  remaining binding at 1 µM: 2.3%
[13]
  remaining binding at 1 µM: 9.3%
[14]
  remaining binding at 1 µM: 0%
[15]
  remaining binding at 1 µM: 27%
[16]
  remaining binding at 1 µM: 25%
[17]
  remaining binding at 1 µM: 21%
[18]
  remaining binding at 1 µM: 26%
[19]
  remaining binding at 1 µM: 2%
[20]
  remaining binding at 1 µM: 24%
[21]
  remaining binding at 1 µM: 0.4%
[22]
  remaining binding at 1 µM: 0%
[23]
  remaining binding at 1 µM: 27%
[24]
  remaining binding at 1 µM: 20%
[25]
  remaining binding at 1 µM: 5.3%
[26]
  remaining binding at 1 µM: 5.5%
[27]
  remaining binding at 1 µM: 11%
[28]
  remaining binding at 1 µM: 31%
[29]
  remaining binding at 1 µM: 0.25%
[30]
  remaining binding at 1 µM: 13%
[31]
  remaining binding at 1 µM: 26%
[32]
  remaining binding at 1 µM: 16%
[33]
  remaining binding at 1 µM: 27%
[34]
  remaining binding at 1 µM: 13%
